Assay results from US9624200B2, “Therapeutic piperazines” (DART NEUROSCIENCE (CAYMAN) LTD., priority 2006, dated 2017).

test system: PDE4 from human U-937 cells; experiment: PDE4 Inhibition Assay; format: biochemical; conditions: 1 μM cAMP, [3H]-cAMP, read-out: Potency Class (Inhibitory Concentration) in the PDE4 assay
Protocol: PDE4 from human U-937 cells was used (see T. J. Torphy, et al., J. Pharmacol. Exp. Ther., 1992, 263, 1195-1205). Test compound at various concentration and/or vehicle was preincubated with 2 μg/ml enzyme in Tris-HCl buffer pH 7.5 for 15 minutes at 25° C. The reaction was initiated by addition of 1 1 μM cAMP and 0.01 1 μM [^3H]-cAMP for another 20 minute incubation period and terminated at 100° C. The resulting [^3H]-AMP was converted to [^3H]-adenosine by addition of snake venom nucleotidase and separated by AG1-X2 resin. An aliquot was removed and counted to determine the amount of [^3H]-adenosine formed. Results were converted to percent inhibition and IC so determined using XLfit from IDBS (ID Business Solutions Ltd., 2 Occam Court, Surrey Research Park, Guildford, Surrey, GU2 7QB UK).
Representative compounds of the present invention were tested and found to have significant PDE4 inhibition in this assay.

SMILES	IC50 [nM]
COc1ccc(N2CCN(C(=O)CCc3cnc[nH]3)[C@@H](Cc3ccccc3)C2)cc1OC1CCCC1 [Compound 239, (S)-1-(2-benzyl-4-(3-(cyclopentyloxy)-4-methoxyphenyl)piperazin-1-yl)-3-(1H-imidazol-5-yl)propan-1-one]	> 1000
COc1ccc(N2CCN(CCc3cnc[nH]3)[C@@H](Cc3ccccc3)C2)cc1OC1CCCC1 [Compound 242, (S)-1-(2-(1H-imidazol-5-yl)ethyl)-2-benzyl-4-(3-(cyclopentyloxy)-4-methoxyphenyl)piperazine]	> 1000
COc1ccc(N2CCN(C(=O)C(C)C)[C@@H](Cc3ccccc3)C2)cc1OC1CCCC1 [Compound 243, (S)-1-(2-benzyl-4-(3-(cyclopentyloxy)-4-methoxyphenyl)piperazin-1-yl)-2-methylpropan-1-one]	> 1000
COc1ccc(N2CCN(C(C)=O)[C@@H](CN3CCCC3)C2)cc1OC1CCCC1 [Compound 249, (S)-1-(4-(3-(cyclopentyloxy)-4-methoxyphenyl)-2-(pyrrolidin-1-ylmethyl)piperazin-1-yl)ethanone]	> 1000
COc1ccc(N2CCN(C(C)=O)[C@@H](CN3CCOCC3)C2)cc1OC1CCCC1 [Compound 250, (S)-1-(4-(3-(cyclopentyloxy)-4-methoxyphenyl)-2-(morpholinomethyl)piperazin-1-yl)ethanone]	> 1000
CCOc1ccc(N2CCN(C(C)=O)[C@@H](Cn3cccn3)C2)cc1OC1CCCC1 [Compound 254]	> 1000
COc1ccc(N2CCN(C(=O)Cc3n[nH]c(C)n3)[C@@H](CN3CCCC3)C2)cc1OC1CCCC1 [Compound 255, (S)-1-(4-(3-(cyclopentyloxy)-4-methoxyphenyl)-2-(pyrrolidin-1-ylmethyl)piperazin-1-yl)-2-(5-methyl-1H-1,2,4-triazol-3-yl)ethanone]	> 1000
COc1ccc(N2CCN(C(=O)Cc3n[nH]c(C)n3)[C@@H](CN3CCOCC3)C2)cc1OC1CCCC1 [Compound 256, (S)-1-(4-(3-(cyclopentyloxy)-4-methoxyphenyl)-2-(morpholinomethyl)piperazin-1-yl)-2-(5-methyl-1H-1,2,4-triazol-3-yl)ethanone]	< 200
COc1ccc(N2CCN(C(=O)CC(=O)O)[C@@H](Cc3ccccc3)C2)cc1OC1CCC1 [Compound 258, (S)-3-(2-benzyl-4-(3-cyclobutoxy-4-methoxyphenyl)piperazin-1-yl)-3-oxopropanoic acid]	< 200
COc1ccc(N2CCN(C(=O)CC(N)=O)[C@@H](Cc3ccccc3)C2)cc1OC1CCC1 [Compound 261, (S)-3-(2-benzyl-4-(3-cyclobutoxy-4-methoxyphenyl)piperazin-1-yl)-3-oxopropanamide]	< 200
NC(=O)CC(=O)N1CCN(c2ccc(OC(F)F)c(OC3CCC3)c2)C[C@@H]1Cc1ccccc1 [Compound 263, (S)-3-(2-benzyl-4-(3-cyclobutoxy-4-(difluoromethoxy)phenyl)piperazin-1-yl)-3-oxopropanamide]	< 200
COc1ccc(N2CCN(CC(N)=O)[C@@H](Cc3ccccc3)C2)cc1OC1CCC1 [Compound 268, (S)-2-(2-benzyl-4-(3-cyclobutoxy-4-methoxyphenyl)piperazin-1-yl)acetamide]	< 200
COc1ccc(N2CCN(CC(N)=O)[C@@H](Cc3ccccc3)C2)cc1OC(F)F [Compound 271, (S)-2-(2-benzyl-4-(3-(difluoromethoxy)-4-methoxyphenyl)piperazin-1-yl)acetamide]	200 to 1000
COc1ccc(N2CCN(CCC(N)=O)[C@@H](Cc3ccccc3)C2)cc1OC(C)C [Compound 272, (S)-3-(2-benzyl-4-(3-isopropoxy-4-methoxyphenyl)piperazin-1-yl)propanamide]	200 to 1000
NC(=O)CN1CCN(c2ccc(OC(F)F)c(OC3CCC3)c2)C[C@@H]1Cc1ccccc1 [Compound 273, (S)-2-(2-benzyl-4-(3-cyclobutoxy-4-(difluoromethoxy)phenyl)piperazin-1-yl)acetamide]	< 200
COc1ccc(N2CCN(C(=O)CCN)[C@@H](Cc3ccccc3)C2)cc1OC1CCC1 [Compound 274, (S)-3-amino-1-(2-benzyl-4-(3-cyclobutoxy-4-methoxyphenyl)piperazin-1-yl)propan-1-one]	> 1000
CCc1nn(C2CCC2)c2cc(N3CCN(CC(N)=O)[C@@H](Cc4ccccc4)C3)ccc12 [Compound 275, (S)-2-(2-benzyl-4-(1-cyclobutyl-3-ethyl-1H-indazol-6-yl)piperazin-1-yl)acetamide]	> 1000
CCc1nn(C2CCC2)c2cc(N3CCN(CCC(N)=O)[C@@H](Cc4ccccc4)C3)ccc12 [Compound 276, (S)-3-(2-benzyl-4-(1-cyclobutyl-3-ethyl-1H-indazol-6-yl)piperazin-1-yl)propanamide]	> 1000
COc1ccc(N2CCN(C(=O)[C@H]3C[C@H](O)CN3)[C@@H](Cc3ccccc3)C2)cc1OC1CCCC1 [Compound 278, ((S)-2-benzyl-4-(3-(cyclopentyloxy)-4-methoxyphenyl)piperazin-1-yl)((2R,4S)-4-hydroxypyrrolidin-2-yl)methanone]	> 1000
COc1ccc(N2CCN(C(=O)[C@H]3C[C@@H](O)CN3)[C@@H](Cc3ccccc3)C2)cc1OC1CCCC1 [Compound 279, ((S)-2-benzyl-4-(3-(cyclopentyloxy)-4-methoxyphenyl)piperazin-1-yl)((2R,4R)-4-hydroxypyrrolidin-2-yl)methanone]	> 1000
COc1ccc(N2CCN(C(=O)C(C)(C)O)[C@@H](Cc3ccccc3)C2)cc1OC1CCCC1 [Compound 282, (S)-1-(2-benzyl-4-(3-(cyclopentyloxy)-4-methoxyphenyl)piperazin-1-yl)-2-hydroxy-2-methylpropan-1-one]	200 to 1000
COc1ccc(N2CCN(C(=O)C3(O)CC3)[C@@H](Cc3ccccc3)C2)cc1OC1CCCC1 [Compound 283, (S)-(2-benzyl-4-(3-(cyclopentyloxy)-4-methoxyphenyl)piperazin-1-yl)(1-hydroxycyclopropyl)methanone]	200 to 1000
COc1ccc(N2CCN(C(=O)COC(C)=O)[C@@H](Cc3ccccc3)C2)cc1OC1CCCC1 [Compound 284, (S)-2-(2-benzyl-4-(3-(cyclopentyloxy)-4-methoxyphenyl)piperazin-1-yl)-2-oxoethyl acetate]	> 1000

More lines, now with the values ahead:

IC50 [nM]	SMILES
200 to 1000	COc1ccc(N2CCN(C(=O)C3CCC(=O)N3)[C@@H](Cc3ccccc3)C2)cc1OC1CCCC1 (mixture of isomers) [Compound 285, (S)-5-(2-benzyl-4-(3-(cyclopentyloxy)-4-methoxyphenyl)piperazine-1-carbonyl)pyrrolidin-2-one]
< 200	COc1ccc(N2CCN(C(=O)Cc3cnc[nH]3)[C@@H](Cc3ccccc3)C2)cc1OC1CCCC1 [Compound 240, (S)-1-(2-benzyl-4-(3-(cyclopentyloxy)-4-methoxyphenyl)piperazin-1-yl)-2-(1H-imidazol-5-yl)ethanone]
200 to 1000	COc1ccc(N2CCN(C(=O)c3c[nH]cn3)[C@@H](Cc3ccccc3)C2)cc1OC1CCCC1 [Compound 241, (S)-(2-benzyl-4-(3-(cyclopentyloxy)-4-methoxyphenyl)piperazin-1-yl)(1H-imidazol-4-yl)methanone]
200 to 1000	CCC(=O)N1CCN(c2ccc(OC)c(OC3CCCC3)c2)C[C@@H]1Cc1ccccc1 [Compound 244, (S)-1-(2-benzyl-4-(3-(cyclopentyloxy)-4-methoxyphenyl)piperazin-1-yl)propan-1-one]
200 to 1000	COCC(=O)N1CCN(c2ccc(OC)c(OC3CCCC3)c2)C[C@@H]1Cc1ccccc1 [Compound 245, (S)-1-(2-benzyl-4-(3-(cyclopentyloxy)-4-methoxyphenyl)piperazin-1-yl)-2-methoxyethanone]
< 200	COc1ccc(N2CCN(C(C)=O)[C@@H](Cc3cccc(C)c3)C2)cc1OC1CCCC1 [Compound 248, (S)-1-(4-(3-(cyclopentyloxy)-4-methoxyphenyl)-2-(3-methylbenzyl)piperazin-1-yl)ethanone]
200 to 1000	COc1ccc(N2CCN(C(C)=O)[C@@H](CN3Cc4ccccc4C3)C2)cc1OC1CCCC1 [Compound 252, (S)-1-(4-(3-(cyclopentyloxy)-4-methoxyphenyl)-2-(isoindolin-2-ylmethyl)piperazin-1-yl)ethanone]
< 200	COc1ccc(N2CCN(C(C)=O)[C@@H](CN3CCc4ccccc4C3)C2)cc1OC1CCCC1 [Compound 253, (S)-1-(4-(3-(cyclopentyloxy)-4-methoxyphenyl)-2-((3,4-dihydroisoquinolin-2(1H)-yl)methyl)piperazin-1-yl)ethanone]
< 200	CCOc1ccc(N2CCN(C(=O)Cc3n[nH]c(C)n3)[C@@H](Cn3cccn3)C2)cc1OC1CCCC1 [Compound 257]
< 200	CCc1nn(C2CCC2)c2cc(N3CCN(C(=O)CC(N)=O)[C@@H](Cc4ccccc4)C3)ccc12 [Compound 264, (S)-3-(2-benzyl-4-(1-cyclobutyl-3-ethyl-1H-indazol-6-yl)piperazin-1-yl)-3-oxopropanamide]
200 to 1000	COc1ccc(N2CCN(CC(=O)O)[C@@H](Cc3ccccc3)C2)cc1OC(C)C [Compound 266]
< 200	COc1ccc(N2CCN(CCC(N)=O)[C@@H](Cc3ccccc3)C2)cc1OC1CCCC1 [Compound 269, (S)-3-(2-benzyl-4-(3-(cyclopentyloxy)-4-methoxyphenyl)piperazin-1-yl)propanamide]
< 200	COc1ccc(N2CCN(C(=O)C3CNC(=O)N3)[C@@H](Cc3ccccc3)C2)cc1OC1CCCC1 (stereo partly drawn) [Compound 281, 4-((S)-2-benzyl-4-(3-(cyclopentyloxy)-4-methoxyphenyl)piperazine-1-carbonyl)imidazolidin-2-one]
